Experimental findings from patent publication US8518635B2, “Regulation of protein activity by reversible acetylation” (The J. David Gladstone Institutes, priority 2006, dated 2013) are described below.

The subject of assay [1] is AceCS2. Briefly: Acetyl-CoA synthetase activity of purified AceCS2. It counts as biochemical, human. The settings on record: hyperacetylated AceCS2 from nicotinamide-treated E. coli vs untreated. As for the experimental part: E. coli DH5α bacteria (Invitrogen) transformed, e.g., with either pTrcHis2C-SIRT3(102-399), pTrcHis2C-SIRT3-H248Y(102-399), pTrcHis2C-SIRT5(12-310), pTrcHis2C-SIRT5(39-310) or pTrcHis2C-AceCS2(38-689) were grown to an A600 nm=0.4, and induced with 0.5 mM isopropyl-β-D-thiogalactopyranoside (IPTG) at 25° C. for 16 h. 6×His-tagged proteins were purified under native conditions at 4° C. using Ni-NTA agarose (Qiagen, Valencia, Calif.). […]
The activity of purified AceCS2 was measured as described (Jones & Lipmann, 1955, in Methods in Enzymology (Academic Press, Vol. 1, pp. 585-591; Barak et al., 2004, J Mol Biol 342:383-401). Each reaction (0.5 mL) contained 100 mM hydroxylamine (pre-neutralized with KOH), 50 mM Tris-HCl (pH 8.0), 20 mM potassium acetate, 10 mM MgCl2, 10 mM ATP, 2 mM DTT and 1 mM CoA. All chemicals (Sigma) were of the highest purity available. Reactions were pre-incubated at 35° C. for 5 min before the addition of purified AceCS2 (6 μg). After 30 min of incubation, 0.5 mL stop solution (10% (w/v) FeCl3, 3.3% (w/v) trichloroacetic acid in 2 N HCl) were added and reactions were incubated on ice for 2 min. The samples were centrifuged for 2 min at 16,200×g to remove turbidity and the generated color was measured at 540 nm. […]

Assay [2] addresses T1, bacterial sirtuins (Escherichia coli, UniProt P75960).
T1 construct: endogenous in cells; host or cells: E. coli DH5alpha (Invitrogen)
Briefly: Expression of recombinant human AceCS2 in nicotinamide-treated E. coli, acetyl-lysine immunoblot. It counts as cell-based. As for the experimental part: E. coli DH5α bacteria (Invitrogen) transformed, e.g., with either pTrcHis2C-SIRT3(102-399), pTrcHis2C-SIRT3-H248Y(102-399), pTrcHis2C-SIRT5(12-310), pTrcHis2C-SIRT5(39-310) or pTrcHis2C-AceCS2(38-689) were grown to an A600 nm=0.4, and induced with 0.5 mM isopropyl-β-D-thiogalactopyranoside (IPTG) at 25° C. for 16 h. 6×His-tagged proteins were purified under native conditions at 4° C. using Ni-NTA agarose (Qiagen, Valencia, Calif.). Purified proteins were dialyzed (e.g., against sirtuin storage buffer […], 4 mM MgCl2, 50 mM NaCl, 0.5 mM DTT, 5% glycerol (v/v) or AceCS2 storage buffer [50 mM Tris-HCl (pH 8.0), 4 mM MgCl2, 10% glycerol (v/v)], adjusted to 0.5 g/L and stored frozen at −80° C. To induce acetylation of recombinant AceCS2, nicotinamide (50 mM) was added during protein expression (16 h, 25° C.).
Immunoblots were developed with enhanced chemiluminescence (Amersham Pharmacia Biosciences) or West SuperSignal reagent (Pierce). Membranes were either nitrocellulose or polyvinylidene fluoride (PVDF) (Immun-Blot; Bio-Rad Laboratories).
A general note: A western blot detects proteins with antibodies after separation by electrophoresis.

Entries after “also recorded” stand apart in the source; their conditions may differ.

T1 sequence (P75960 whole entry): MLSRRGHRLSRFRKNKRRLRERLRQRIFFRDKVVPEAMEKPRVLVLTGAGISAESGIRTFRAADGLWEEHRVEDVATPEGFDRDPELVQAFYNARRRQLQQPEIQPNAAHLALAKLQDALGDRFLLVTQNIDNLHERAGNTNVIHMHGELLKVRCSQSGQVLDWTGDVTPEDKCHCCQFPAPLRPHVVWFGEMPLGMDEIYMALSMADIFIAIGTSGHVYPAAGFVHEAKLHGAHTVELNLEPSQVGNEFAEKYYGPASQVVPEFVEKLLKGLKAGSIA

`NC(=O)c1cccnc1` [nicotinamide]: in assay [1], the “specific activity of AceCS2 purified from bacteria treated or not with nicotinamide” value is given as “significantly lower specific activity”. For the same compound, in assay [2] (E. coli treated with nicotinamide during expression, AceCS2-K642R), the “acetylation of mutant AceCS2 protein carrying an arginine residue in position 642” value was “did not induce acetylation”. Also, in assay [2] (wild-type E. coli treated with nicotinamide (50 mM) during protein expression, 16 h, 25° C., AceCS2 wild type), the “acetylation of recombinant human AceCS2 (Lys642)” value is “hyperacetylation of recombinant human AceCS2; also recorded: significantly increased its levels of acetylation”.
